Here are results for 1 molecule from article PMC11974063 (BMC Medicine, 2025).

For this assay, the target named is Influenza HA2 protein. Type of assay: binding.

For `COCCOC(=O)C1=C(C)NC(C)=C(C(=O)OC/C=C/c2ccccc2)C1c1cccc([N+](=O)[O-])c1` (stereo not shown) [cilnidipine], the Kd (as a rule, a measure of binding affinity in units of concentration) is 0.032 µM.
